Patent US20090304810A1, “Composition and method for enhanced sanitation and oxidation of aqueous systems” (priority 2005, published 2009)
Blank lines part the entries; values can stand above or below the compound they belong to.

What was measured:
[1] = system: planktonic algae; experiment: Algae destruction in outdoor pool; format: cell-based; settings: same pool system, opening procedure, 500 lbs
Procedure: In an outdoor 360,000 gallon pool contaminated with planktonic algae, 200 lbs of the cobalt monopersulfate composition comprising 99.3 wt % Potassium monopersulfate, 0.5 wt % Magnesium Carbonate, and 0.2 wt % Cobalt Acetate as previously disclosed was added to the system by broadcasting. 40 pounds of soda ash was added to neutralize excess acidity, and the ORP controller was set at 780 mV.
The ORP was consistently achieving 780 mV with 2.0-2.5 ppm of free chlorine.
For comparison purposes, the same pool system during the opening procedure was treated with 500 lbs of calcium hypochlorite and allowed to circulate for 7 days before obtaining the water clarity and being allowed to open to swimmers.

[2] = Catalyst precipitation; format: physicochemical
Procedure: 20 grams of potassium monopersulfate, 0.1 grams cuprous chloride and 80 grams distilled water was added to a 250 ml beaker and mixed on a magnetic stirrer until dissolved. 1 gram of solution was carefully measured and diluted with 99 grams of distilled water. The diluted sample was treated with sodium bisulfite to remove residual monopersulfate, the pH was then adjusted to 7.3 using a diluted solution of sodium hydroxide. The resulting clear solution was tested using a HACH Company Method 8506 bicinchoninate-powder pillow test procedure and a DR-2000 spectrophotometer. The resulting copper level was measured and corrected compensate for the dilution. The final result being 4.9 ppm as Cu.
A second 1-gram sample from the original solution was neutralized with sodium bisulfite, then treated with 2-grams of 0.1 wt % alum solution to achieve approximately 20 ppm as alum in the diluted solution. The pH was adjust with dilute sodium hydroxide to achieve a pH of approximately 7.3, mixed for about 5 minutes, then allowed to settle in a graduated cylinder. 25 ml of clear water was decanted and tested for copper, resulting a value of 0.78 ppm as Cu.

Compound: [Ca+2].[O-]Cl.[O-]Cl [calcium hypochlorite]
circulation time before obtaining water clarity [1]: 7 days

copper level ([2]; no alum, 1:99 diluted, pH 7.3, monopersulfate removed): 4.9 ppm as Cu
Compound: [Cl][Cu] [cuprous chloride]

copper level in decanted clear water ([2]; approximately 20 ppm alum, pH approximately 7.3, mixed about 5 minutes, settled): 0.78 ppm as Cu
Compound: alum
